From patent publication US4365066A, “2(4-n-Hexadecyl amino or oxy phenyl) 5 ethoxy oxazoleacetic acid derivatives” (Yoshitomi Pharmaceutical Industries Ltd., priority 1979, dated 1982)
Where two headings read alike, the source gives them in different places.

How the values were obtained:
[1] = test system: Cholesterol and triglyceride in the serum; experiment: (i) Serum cholesterol and triglyceride reduction in rats fed a diet containing 1% of cholesterol; type: in vivo, Male Sprague-Dowley rats; conditions: rats on diet containing 1% cholesterol, test compound 0.1% (W/W) in diet, oral, 5 days, control = 100%
Description: (§1) (i) Male Sprague-Dowley rats were used. Each group was composed of 8 animals. Rats were fed a diet containing 1% of cholesterol. The test compound was orally administered to the animal by feeding with the diet to which the compound was blended in a ratio of 0.1% (W/W) for 5 days. Cholesterol and triglyceride in the serum were determined by the standard methods using an autoanalyzer (Technicon Inc.). The levels in the control group were considered as 100% and the reduction rate in the test group was calculated.

[2] = (iii) Acute toxicity (LD50) in mice; conditions: mouse, in vivo, mortality within 7 days
Description: (iii) Male dd-strain mice were used. Each group was composed of 10 animals. The test compound was administered intraperitoneally or orally to the animals. The LD50 (mg/kg) was calculated from the mortality within 7 days after administration of the test compound.

blood cholesterol = experiment: (iv) Blood cholesterol reduction in hyperlipemic monkeys fed a diet containing 0.25% cholesterol; type: in vivo; conditions: hyperlipemic Rhesus monkeys, diet with 0.25% cholesterol; diet containing 0.7% (W/W) test compound, 15 days; vs control group
[3] = test system: Cholesterol and triglyceride in the serum; experiment: (ii) Serum cholesterol and triglyceride reduction in rats fed a conventional diet; type: in vivo, Male Sprague-Dowley rats; conditions: rats on conventional diet, test compound 0.1% (W/W) in diet, oral, 5 days, control = 100%
Description: as §1, with “calculated. (ii) With the exception that rats were fed a conventional diet instead of the diet containing 1% cholesterol, a test was carried out in the same condition (rats used, administration method, period, concentration of test compound and cholesterol and triglyceride determination) as in the above test (i).” for “calculated.”

[4] = ip, intraperitoneal, read-out: LD50 Intraperitoneal administration
[5] = oral, read-out: LD50 Oral administration

## CCCCCCCCCCCCCCCCNc1ccc(-c2nc(CC(=O)[O-])c(OCC)o2)cc1.[Na+]
[1]
  Reduction Rate (%) Cholesterol: 31%
  Reduction Rate (%) Triglyceride: 28%
[2]; [4]
  LD50 at 168 h: > 1000 mg/kg
[2]; [5]
  LD50 at 168 h: > 2500 mg/kg
Blood cholesterol
  reduction activity of blood cholesterol: outstanding reduction activity
[3]
  Reduction Rate (%) Cholesterol: 26%
  Reduction Rate (%) Triglyceride: 44%

## CCOc1oc(-c2ccc(OCc3ccc(Cl)cc3)cc2)nc1CC(=O)O [Compound D, 2-[4-(4-Chlorobenzyloxy)phenyl]-5-ethoxy-4-oxazoleacetic acid]
[1]
  Reduction Rate (%) Cholesterol: 37%
  Reduction Rate (%) Triglyceride: 42%
[3]
  Reduction Rate (%) Cholesterol: 19%
  Reduction Rate (%) Triglyceride: 53%

## CCOC(=O)C(C)(C)Oc1ccc(Cl)cc1 [Compound E, Clofibrate, reference compound]
[1]
  Reduction Rate (%) Cholesterol: 22%
  Reduction Rate (%) Triglyceride: 23%
[2]; [4]
  LD50 at 168 h: > 1000 mg/kg
[2]; [5]
  LD50 at 168 h: > 1450 mg/kg
[3]
  Reduction Rate (%) Cholesterol: 23%
  Reduction Rate (%) Triglyceride: 34%

## CCCCCCCCCCCCCCCCOc1ccc(-c2nc(CC(=O)O)c(Oc3ccc(Cl)cc3)o2)cc1 [Compound C, 2-(4-n-Hexadecyloxyphenyl)-5-(4-chlorophenoxy)-4-oxazoleacetic acid]
[1]
  Reduction Rate (%) Cholesterol: 31%
  Reduction Rate (%) Triglyceride: 37%

## CCCCCCCCCCCCCCCCOc1ccc(-c2nc(CC(=O)O)c(OCC)o2)cc1 [Compound A, 2-(4-n-Hexadecyloxyphenyl)-5-ethoxy-4-oxazoleacetic acid]
[1]
  Reduction Rate (%) Cholesterol: 21%
  Reduction Rate (%) Triglyceride: 35%
[2]; [4]
  LD50 at 168 h: > 1000 mg/kg
[2]; [5]
  LD50 at 168 h: > 2500 mg/kg
Blood cholesterol
  reduction activity of blood cholesterol: outstanding reduction activity
[3]
  Reduction Rate (%) Cholesterol: 29%
  Reduction Rate (%) Triglyceride: 44%
